Reference: patent US20230040909A1 (priority 2019, published 2023)
In brackets after ≈: the same amount, converted by molar mass. Where two headings read alike, the source gives them in different places.

Key:
hCav1.2 = hCav1.2 (Homo sapiens, UniProt Q13936); test: biochemical
[1] = QTc (QTcV) prolongation in dogs after oral dosing, with plasma level at 1 hr; conditions: for corrected QT (QTc) prolongation in dogs / Max. QTcv / C1 hr / QTcV @ 1 hr: dogs; for Max. QTcv / C1 hr / QTcV @ 1 hr: PO; for C1 hr / QTcV @ 1 hr: 1 hr
hNav1.5 Peak = hNav1.5 Peak (Homo sapiens, UniProt Q14524); test: In vitro assessment of ion channels: hNav1.5 Peak; type: biochemical
hNav1.5 Late = hNav1.5 Late (Homo sapiens, UniProt Q14524); test: In vitro assessment of ion channels: hNav1.5 Late; type: biochemical
hKCNQ1/MinK = hKCNQ1/MinK (Homo sapiens, UniProt P51787); test: biochemical; type: biochemical
hERG = hERG (Homo sapiens, UniProt Q12809); test: biochemical
Sequence of hERG (Q12809 whole entry): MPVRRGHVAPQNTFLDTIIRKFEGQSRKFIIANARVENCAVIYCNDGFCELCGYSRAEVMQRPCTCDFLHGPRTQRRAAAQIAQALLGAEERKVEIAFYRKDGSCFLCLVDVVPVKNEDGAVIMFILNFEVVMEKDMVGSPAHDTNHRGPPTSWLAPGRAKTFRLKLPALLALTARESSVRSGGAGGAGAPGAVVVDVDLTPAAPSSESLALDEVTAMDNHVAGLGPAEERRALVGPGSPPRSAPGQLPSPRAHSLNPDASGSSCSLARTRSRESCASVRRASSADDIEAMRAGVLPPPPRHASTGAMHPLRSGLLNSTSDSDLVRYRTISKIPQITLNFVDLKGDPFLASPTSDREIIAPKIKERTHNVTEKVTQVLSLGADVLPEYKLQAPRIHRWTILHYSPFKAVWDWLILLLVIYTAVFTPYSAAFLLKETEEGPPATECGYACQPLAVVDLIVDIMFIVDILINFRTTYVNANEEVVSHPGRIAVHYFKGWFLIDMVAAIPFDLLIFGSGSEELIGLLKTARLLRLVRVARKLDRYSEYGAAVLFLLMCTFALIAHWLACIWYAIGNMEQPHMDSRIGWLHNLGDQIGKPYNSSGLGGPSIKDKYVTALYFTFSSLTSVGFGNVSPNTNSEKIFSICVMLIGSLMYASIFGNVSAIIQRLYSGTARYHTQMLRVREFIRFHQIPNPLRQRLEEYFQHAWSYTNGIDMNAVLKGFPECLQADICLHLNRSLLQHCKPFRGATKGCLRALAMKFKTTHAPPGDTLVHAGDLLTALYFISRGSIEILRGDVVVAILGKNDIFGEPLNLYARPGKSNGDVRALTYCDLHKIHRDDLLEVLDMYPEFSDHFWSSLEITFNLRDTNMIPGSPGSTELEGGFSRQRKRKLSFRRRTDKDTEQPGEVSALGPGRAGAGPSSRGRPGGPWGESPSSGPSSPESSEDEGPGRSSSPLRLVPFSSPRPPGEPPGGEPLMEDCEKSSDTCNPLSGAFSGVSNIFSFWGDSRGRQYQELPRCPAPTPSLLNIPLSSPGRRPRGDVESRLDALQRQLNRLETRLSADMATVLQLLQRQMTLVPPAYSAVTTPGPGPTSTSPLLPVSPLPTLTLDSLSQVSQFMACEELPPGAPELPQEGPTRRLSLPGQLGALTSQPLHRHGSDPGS

VERO cell cytotoxicity = type: cell-based; conditions: African green monkey, VERO cells
Text: The procedures described in Falzari 2005 were used to generate the data shown in column 2 of Table 4.

M. tb H37Rv [2] = test: microbe, parasite or virus in culture; type: cell-based; conditions: Mycobacterium tuberculosis; for MIC: read-out: M. tb H37Rv: MIC-LORA
M. tb H37Rv [3] = test: microbe, parasite or virus in culture; type: cell-based, Mycobacterium tuberculosis; conditions: Mycobacterium tuberculosis, H37RV; read-out: M. tb H37Rv: MIC-MABA
Mycobacterium abscessus = test: M. ab_ATCC MIC MHII; type: cell-based
Text: The procedure described in Franz 2017 was used to generate the data shown in column 5 of Table 4.

[4] = Mycobacteroides abscessus; read-out: M. ab_ATCC: MIC MHII: MIC

Sequence of hCav1.2 (Q13936 whole entry): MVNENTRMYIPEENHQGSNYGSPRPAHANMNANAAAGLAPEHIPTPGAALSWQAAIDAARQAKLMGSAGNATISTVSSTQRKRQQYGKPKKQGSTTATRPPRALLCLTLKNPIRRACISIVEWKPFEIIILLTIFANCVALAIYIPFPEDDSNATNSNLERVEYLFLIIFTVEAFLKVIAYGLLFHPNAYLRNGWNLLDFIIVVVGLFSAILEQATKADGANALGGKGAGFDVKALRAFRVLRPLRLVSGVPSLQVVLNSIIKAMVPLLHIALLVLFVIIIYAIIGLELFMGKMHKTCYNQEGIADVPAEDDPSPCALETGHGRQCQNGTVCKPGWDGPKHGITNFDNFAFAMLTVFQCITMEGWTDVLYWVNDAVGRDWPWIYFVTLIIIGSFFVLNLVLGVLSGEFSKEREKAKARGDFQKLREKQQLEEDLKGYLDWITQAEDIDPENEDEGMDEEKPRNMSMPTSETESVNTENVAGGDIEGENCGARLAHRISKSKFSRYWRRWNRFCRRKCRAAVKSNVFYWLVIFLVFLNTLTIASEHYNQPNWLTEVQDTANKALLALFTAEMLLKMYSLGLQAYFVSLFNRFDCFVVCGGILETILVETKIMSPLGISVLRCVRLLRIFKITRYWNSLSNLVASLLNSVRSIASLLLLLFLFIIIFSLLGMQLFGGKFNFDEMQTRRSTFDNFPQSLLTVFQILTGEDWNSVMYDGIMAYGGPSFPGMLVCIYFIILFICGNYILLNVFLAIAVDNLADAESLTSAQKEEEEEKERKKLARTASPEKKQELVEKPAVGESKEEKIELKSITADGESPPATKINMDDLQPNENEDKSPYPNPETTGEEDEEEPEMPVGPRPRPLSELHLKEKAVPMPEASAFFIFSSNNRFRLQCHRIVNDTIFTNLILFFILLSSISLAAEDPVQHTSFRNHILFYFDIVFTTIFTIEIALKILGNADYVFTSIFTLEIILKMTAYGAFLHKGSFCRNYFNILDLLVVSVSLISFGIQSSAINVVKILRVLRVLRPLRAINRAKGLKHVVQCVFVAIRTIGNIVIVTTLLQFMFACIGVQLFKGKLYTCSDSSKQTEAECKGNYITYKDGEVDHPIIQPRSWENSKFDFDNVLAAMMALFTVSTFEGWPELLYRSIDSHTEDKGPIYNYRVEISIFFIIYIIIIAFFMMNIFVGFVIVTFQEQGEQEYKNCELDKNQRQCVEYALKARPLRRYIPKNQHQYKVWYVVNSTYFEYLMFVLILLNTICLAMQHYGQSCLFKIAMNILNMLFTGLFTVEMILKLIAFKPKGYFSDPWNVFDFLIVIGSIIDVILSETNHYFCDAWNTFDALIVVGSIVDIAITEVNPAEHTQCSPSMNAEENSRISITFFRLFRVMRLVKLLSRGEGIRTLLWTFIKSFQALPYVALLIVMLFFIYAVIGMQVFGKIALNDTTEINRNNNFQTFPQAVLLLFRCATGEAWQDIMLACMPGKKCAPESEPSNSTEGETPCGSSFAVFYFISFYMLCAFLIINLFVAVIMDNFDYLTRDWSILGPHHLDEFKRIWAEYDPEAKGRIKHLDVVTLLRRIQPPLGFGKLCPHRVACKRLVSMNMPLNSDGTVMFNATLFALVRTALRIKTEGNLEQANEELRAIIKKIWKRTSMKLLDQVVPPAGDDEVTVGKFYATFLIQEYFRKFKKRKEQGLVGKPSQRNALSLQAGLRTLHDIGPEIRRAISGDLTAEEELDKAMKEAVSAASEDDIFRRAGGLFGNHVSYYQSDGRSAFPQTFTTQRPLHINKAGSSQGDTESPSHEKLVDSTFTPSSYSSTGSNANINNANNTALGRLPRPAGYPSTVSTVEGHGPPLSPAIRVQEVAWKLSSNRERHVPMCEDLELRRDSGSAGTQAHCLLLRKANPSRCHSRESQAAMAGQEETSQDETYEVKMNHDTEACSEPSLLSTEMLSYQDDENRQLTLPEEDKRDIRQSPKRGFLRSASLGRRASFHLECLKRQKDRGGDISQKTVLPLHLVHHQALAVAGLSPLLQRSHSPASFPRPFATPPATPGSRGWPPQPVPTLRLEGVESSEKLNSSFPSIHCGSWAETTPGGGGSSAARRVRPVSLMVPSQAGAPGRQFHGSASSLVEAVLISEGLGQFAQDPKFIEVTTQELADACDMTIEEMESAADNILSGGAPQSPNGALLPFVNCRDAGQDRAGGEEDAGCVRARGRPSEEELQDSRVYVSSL
Sequence of hCav1.2 (Q08289 whole entry partner): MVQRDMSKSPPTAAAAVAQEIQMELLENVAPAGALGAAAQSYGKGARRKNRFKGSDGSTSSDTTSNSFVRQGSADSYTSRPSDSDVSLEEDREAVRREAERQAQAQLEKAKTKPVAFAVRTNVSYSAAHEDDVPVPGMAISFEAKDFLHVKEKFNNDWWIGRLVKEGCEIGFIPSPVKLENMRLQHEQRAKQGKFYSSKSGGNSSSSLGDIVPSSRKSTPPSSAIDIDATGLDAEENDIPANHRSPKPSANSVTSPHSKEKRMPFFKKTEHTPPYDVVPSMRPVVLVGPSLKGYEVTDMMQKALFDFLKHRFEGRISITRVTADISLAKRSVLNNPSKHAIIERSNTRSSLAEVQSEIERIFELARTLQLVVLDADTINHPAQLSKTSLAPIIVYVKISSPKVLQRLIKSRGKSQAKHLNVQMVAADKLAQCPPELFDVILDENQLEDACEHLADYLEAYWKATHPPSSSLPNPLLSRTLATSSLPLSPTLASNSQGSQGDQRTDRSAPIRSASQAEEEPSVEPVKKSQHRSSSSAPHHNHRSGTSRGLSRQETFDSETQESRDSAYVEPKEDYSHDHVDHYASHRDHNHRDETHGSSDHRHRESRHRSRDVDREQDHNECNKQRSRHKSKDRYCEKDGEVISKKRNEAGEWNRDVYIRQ
Sequence of hCav1.2 (P54289 25-946 partner limits assumed): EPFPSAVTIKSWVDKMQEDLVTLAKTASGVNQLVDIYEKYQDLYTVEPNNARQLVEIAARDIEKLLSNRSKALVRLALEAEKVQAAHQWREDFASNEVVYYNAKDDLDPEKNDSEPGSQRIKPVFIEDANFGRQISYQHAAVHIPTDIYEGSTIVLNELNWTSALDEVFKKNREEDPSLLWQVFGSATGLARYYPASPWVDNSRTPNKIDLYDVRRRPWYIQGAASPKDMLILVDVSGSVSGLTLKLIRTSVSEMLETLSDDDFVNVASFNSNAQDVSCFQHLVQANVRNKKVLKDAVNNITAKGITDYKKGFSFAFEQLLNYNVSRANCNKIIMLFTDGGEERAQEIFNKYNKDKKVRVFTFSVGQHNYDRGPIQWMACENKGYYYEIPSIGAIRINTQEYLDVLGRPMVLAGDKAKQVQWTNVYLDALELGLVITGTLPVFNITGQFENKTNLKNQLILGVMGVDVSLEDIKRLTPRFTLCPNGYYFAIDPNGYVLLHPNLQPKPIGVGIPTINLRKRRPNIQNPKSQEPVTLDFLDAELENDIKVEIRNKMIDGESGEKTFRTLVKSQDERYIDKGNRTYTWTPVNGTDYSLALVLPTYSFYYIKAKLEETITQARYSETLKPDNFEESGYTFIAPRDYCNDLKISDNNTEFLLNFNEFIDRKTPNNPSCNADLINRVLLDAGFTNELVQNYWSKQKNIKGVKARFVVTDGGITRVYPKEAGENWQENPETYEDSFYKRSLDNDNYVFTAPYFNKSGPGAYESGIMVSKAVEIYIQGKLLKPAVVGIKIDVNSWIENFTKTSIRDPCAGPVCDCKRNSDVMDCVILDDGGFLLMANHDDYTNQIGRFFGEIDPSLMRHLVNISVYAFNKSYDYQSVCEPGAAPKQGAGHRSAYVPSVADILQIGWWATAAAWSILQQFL
Sequence of hCav1.2 (P54289 947-1103 partner limits assumed): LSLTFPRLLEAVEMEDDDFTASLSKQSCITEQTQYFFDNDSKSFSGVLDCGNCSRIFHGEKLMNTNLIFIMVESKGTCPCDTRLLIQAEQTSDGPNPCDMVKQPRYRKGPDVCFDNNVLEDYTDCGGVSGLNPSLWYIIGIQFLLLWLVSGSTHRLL

Structure (SMILES) | IC50 (VERO cell cytotoxicity) [µg/mL] | MIC (M. tb H37Rv [2]) [µg/mL] | MIC (M. tb H37Rv [3]) [µg/mL] | MIC (Mycobacterium abscessus; [4]) [µg/mL] | further results
CC1(C)CCC(NC(=O)c2cc3c(F)cc(F)cc3[nH]2)CC1 [NITD-349] |  |  |  |  | IC50 (hCav1.2; Table 2): 9.53 µM; IC50 (hCav1.2; Table 3): 9.5 µM; corrected QT (QTc) prolongation in dogs [1]: dramatic corrected QT (QTc) prolongation; Max. QTcv ([1]; 50 mg/kg): 170 ms; C1 hr ([1]; 50 mg/kg): 790 ng/mL; QTcV @ 1 hr ([1]; 50 mg/kg): 11 ms; Max. QTcv ([1]; 150 mg/kg): 170 ms; QTcV @ 1 hr ([1]; 150 mg/kg): 13.6 ms; IC50 (hNav1.5 Peak): > 10 µM; IC50 (hNav1.5 Late; read-out: hNav1.05 Late IC50): > 10 µM; IC50 (hNav1.5 Late; read-out: hNav1.5 Late IC50): > 10 µM; IC50 (hKCNQ1/MinK): 0.058 µM; IC50 (hERG; hERG IC50, Table 2): > 10 µM; IC50 (hERG; hERG IC50, Table 3): > 10 µM; IC50 (hERG; hERG IC50, stated in text): > 50 µM
CC1(C)CCC(NC(=O)c2cc3c(Cl)cc(Cl)cc3[nH]2)CC1 [NITD-304] |  |  |  |  | IC50 (hCav1.2; Table 2): 2.01 µM; IC50 (hCav1.2; Table 3): 2.01 µM; concentration at 1 h ([1]; dog, plasma, po, 150 mg/kg): 300 ng/mL; corrected QT (QTc) prolongation in dogs [1]: dramatic corrected QT (QTc) prolongation; Max. QTcv ([1]; 50 mg/kg): 49 ms; C1 hr ([1]; 50 mg/kg): 250 ng/mL; QTcV @ 1 hr ([1]; 50 mg/kg): -0.6 ms; Max. QTcv ([1]; 150 mg/kg): 120 ms; QTcV @ 1 hr ([1]; 150 mg/kg): 0.3 ms; IC50 (hNav1.5 Peak): > 10 µM; IC50 (hNav1.5 Late; read-out: hNav1.05 Late IC50): 6.4 µM; IC50 (hKCNQ1/MinK): 0.71 µM; IC50 (hERG; hERG IC50, Table 2): > 10 µM; IC50 (hERG; hERG IC50, Table 3): > 10 µM; IC50 (hERG; hERG IC50, stated in text): > 50 µM
CC(C)Oc1cc(F)cc2[nH]c(C(=O)NC3CC[Si](C)(C)CC3)cc12 [MPL-383, N-(1,1-dimethylsilinan-4-yl)-6-fluoro-4-isopropoxy-1H-indole-2-carboxamide] | > 20 | > 20 | 0.0148 (≈ 0.0408 µM) | > 64 | 
O=C(NC1CC[Si]2(CCCCC2)CC1)c1cc2c(F)cc(F)cc2[nH]1 [MPL-256, 4,6-difluoro-N-(6-silaspiro[5.5]undecan-3-yl)-1H-indole-2-carboxamide] | > 20 | 3.4 (≈ 9.38 µM) | 0.0041 (≈ 0.0113 µM) | > 64 | 
Cc1cc(F)c2cc(C(=O)NC3CC[Si](C)(C)CC3)[nH]c2c1 [MPL-470, N-(1,1-dimethylsilinan-4-yl)-4-fluoro-6-methyl-1H-indole-2-carboxamide] | > 20 | > 20 | 0.007 (≈ 0.022 µM) | > 64 | 
Cc1cc(C#N)c2cc(C(=O)NC3CC[Si](C)(C)CC3)[nH]c2c1 [MPL-344, 4-cyano-N-(1,1-dimethylsilinan-4-yl)-6-methyl-1H-indole-2-carboxamide] | > 20 | > 20 | 0.008 (≈ 0.0246 µM) | > 64 | 
O=C(NC1CC[Si]2(CCCC2)CC1)c1cc2c(F)cc(F)cc2[nH]1 [MPL-251, 4,6-difluoro-N-(5-silaspiro[4.5]decan-8-yl)-1H-indole-2-carboxamide] | > 20 | 7 (≈ 20.1 µM) | 0.0043 (≈ 0.0123 µM) | > 64 | 
C[Si]1(C)CCCC(NC(=O)c2cc3c(C(F)(F)F)cc(C(F)(F)F)cc3[nH]2)CCC1 [MPL-326, N-(1,1-dimethylsilocan-5-yl)-4,6-bis(trifluoromethyl)-1H-indole-2-carboxamide] | 15.4 (≈ 34.2 µM) | > 20 | 0.0305 (≈ 0.0677 µM) | > 64 | 
Cc1cc(C#N)cc2[nH]c(C(=O)NC3CC[Si](C)(C)CC3)cc12 [MPL-340, 6-cyano-N-(1,1-dimethylsilinan-4-yl)-4-methyl-1H-indole-2-carboxamide] | > 20 | > 20 | < 0.004 | > 64 | 
C[Si]1(C)CCC(NC(=O)c2cc3c(C(F)(F)F)cc(C(F)(F)F)cc3[nH]2)CC1 [MPL-336, N-(1,1-dimethylsilinan-4-yl)-4,6-bis(trifluoromethyl)-1H-indole-2-carboxamide] | > 20 | > 20 | 0.0306 (≈ 0.0724 µM) |  | MIC (Mycobacterium abscessus; Mycobacteroides abscessus, read-out: M. ab_ATCC: MIC MHII: MIC): > 64 µg/mL
C[Si]1(C)CCCC(NC(=O)c2cc3c(F)cc(F)cc3[nH]2)CC1 (stereo not drawn) [MPL-286, N-(1,1-dimethylsilepan-4-yl)-4,6-difluoro-1H-indole-2-carboxamide] | > 20 | 7.9 (≈ 23.5 µM) | 0.0044 (≈ 0.0131 µM) | > 64 | 
C[Si]1(C)CCCCC(NC(=O)c2cc3c(C(F)(F)F)cc(C(F)(F)F)cc3[nH]2)CC1 (stereo not drawn) [MPL-325, N-(1,1-dimethylsilocan-4-yl)-4,6-bis(trifluoromethyl)-1H-indole-2-carboxamide] | 16.4 (≈ 36.4 µM) | > 20 | 0.0305 (≈ 0.0677 µM) | > 64 | 
COCCOc1cc(F)cc2[nH]c(C(=O)NC3CC[Si](C)(C)CC3)cc12 [MPL-384, N-(1,1-dimethylsilinan-4-yl)-6-fluoro-4-(2-methoxyethoxy)-1H-indole-2-carboxamide] | > 20 | 9.36 (≈ 24.7 µM) | 0.0308 (≈ 0.0814 µM) | > 64 | 
C[Si]1(C)CCC(NC(=O)c2cc3c(Cl)cc(Cl)cc3[nH]2)C1 (racemic) [MPL-399, 4,6-dichloro-N-(1,1-dimethylsilolan-3-yl)-1H-indole-2-carboxamide] | > 20 | 7.81 (≈ 22.9 µM) | < 0.004 | 0.062 (≈ 0.182 µM) | 
COc1cc(F)cc2[nH]c(C(=O)NC3CC[Si](C)(C)CC3)cc12 [MPL-196, N-(1,1-dimethylsilinan-4-yl)-6-fluoro-4-methoxy-1H-indole-2-carboxamide] | > 32 | > 32 | 0.0048 (≈ 0.0144 µM) | > 64 | 
Cc1cc(C(F)(F)F)c2cc(C(=O)NC3CCC[Si](C)(C)CCC3)[nH]c2c1 [MPL-386, N-(1,1-dimethylsilocan-5-yl)-6-methyl-4-(trifluoromethyl)-1H-indole-2-carboxamide] | > 20 | > 20 | < 0.004 | > 64 | 
C[Si]1(C)CCCC(NC(=O)c2cc3c(C(F)(F)F)cc(C(F)(F)F)cc3[nH]2)CC1 (stereo not drawn) [MPL-324, N-(1,1-dimethylsilepan-4-yl)-4,6-bis(trifluoromethyl)-1H-indole-2-carboxamide] | > 20 | > 20 | 0.0154 (≈ 0.0353 µM) | > 64 | 
Cc1cc(C(F)(F)F)c2cc(C(=O)NC3CC[Si](C)(C)CC3)[nH]c2c1 [MPL-385, N-(1,1-dimethylsilinan-4-yl)-6-methyl-4-(trifluoromethyl)-1H-indole-2-carboxamide] | > 20 | 12.7 (≈ 34.5 µM) | < 0.004 | 64 (≈ 174 µM) | 
Cc1cc(C)c2cc(C(=O)NC3CCC[Si](C)(C)CCC3)[nH]c2c1 [MPL-303, N-(1,1-dimethylsilocan-5-yl)-4,6-dimethyl-1H-indole-2-carboxamide] | > 20 | 4.23 (≈ 12.3 µM) | < 0.004 | 4 (≈ 11.7 µM) | 
Cc1cc(C)c2cc(C(=O)NC3CC[Si]4(CCCCC4)CC3)[nH]c2c1 [MPL-265, 4,6-dimethyl-N-(6-silaspiro[5.5]undecan-3-yl)-1H-indole-2-carboxamide] | > 20 | > 20 | 0.014 (≈ 0.0395 µM) | > 64 | inhibition at 20 µg/mL (M. tb H37Rv [2]; at 20 μg/mL, read-out: M. tb H37Rv: MIC-LORA: Comment (% inhibition)): 84%
Cc1cc(Br)cc2[nH]c(C(=O)NC3CC[Si](C)(C)CC3)cc12 [MPL-338, 6-bromo-N-(1,1-dimethylsilinan-4-yl)-4-methyl-1H-indole-2-carboxamide] | > 20 | > 20 | < 0.004 | > 64 | 
Cc1c(C(=O)NC2CC[Si](C)(C)CC2)[nH]c2cc(F)cc(F)c12 [MPL-335, N-(1,1-dimethylsilinan-4-yl)-4,6-difluoro-3-methyl-1H-indole-2-carboxamide] | > 20 | > 20 | < 0.004 | > 64 | 
